Experimental data from patent publication US9796709B2, “5-hydroxy-4-(trifluoromethyl)pyrazolopyridine derivative” (Daiichi Sankyo Company, Limited, priority 2013, dated 2017).

How the values were obtained:
LCAT = biological target: T1, LCAT (Homo sapiens, UniProt P04180); test: LCAT activity measurement (in vitro), [14C]cholesterol esterification with HDL3 fraction; assay type: biochemical; details: HDL3 fraction from plasma of a healthy person as enzyme source and acceptor; 37° C., approximately 16 hours; relative to sample without test drug; read-out: EC50 of LCAT activation
T1 construct: The obtained fraction was dialyzed against phosphate-buffered saline (pH 7.4) and used as an enzyme source and an acceptor for LCAT; from tissue; host or cells: HDL3 fraction (1.125 < specific gravity < 1.210 g/mL) of plasma from a healthy person
T1 sequence (P04180 25-440): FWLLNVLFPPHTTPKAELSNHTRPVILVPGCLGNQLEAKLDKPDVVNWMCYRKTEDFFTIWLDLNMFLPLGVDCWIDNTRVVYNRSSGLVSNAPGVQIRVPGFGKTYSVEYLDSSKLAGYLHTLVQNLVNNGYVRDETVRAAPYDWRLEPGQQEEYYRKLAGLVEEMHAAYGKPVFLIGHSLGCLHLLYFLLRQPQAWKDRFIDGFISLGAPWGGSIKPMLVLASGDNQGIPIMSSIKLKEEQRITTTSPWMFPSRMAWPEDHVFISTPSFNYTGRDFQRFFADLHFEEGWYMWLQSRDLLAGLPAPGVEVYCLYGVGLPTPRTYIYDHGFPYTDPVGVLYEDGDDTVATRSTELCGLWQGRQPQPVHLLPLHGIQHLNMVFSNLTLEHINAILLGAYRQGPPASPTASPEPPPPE
Protocol: A fraction composed of HDL3 (1.125 <specific gravity <1.210 g/mL) was obtained from the plasma of a healthy person by density gradient centrifugation. The obtained fraction was dialyzed against phosphate-buffered saline (pH 7.4) and used as an enzyme source and an acceptor for LCAT. Each test drug was prepared by dissolution in dimethyl sulfoxide. [^14C]Cholesterol containing DTNB (Ellman's reagent, final concentration: 0.5 mM), mercaptoethanol (final concentration: 12.5 mM), and 0.6% bovine serum albumin was added to phosphate-buffered saline (pH 7.4) containing 1 mg/mL HDL3, and the test drug was further added thereto at varying concentrations to adjust the whole amount to 80 μL. This mixture was incubated at 37° C. for approximately 16 hours. Then, a mixed solution of hexane and isopropanol (mixing ratio=3:2) was added thereto to stop the reaction. After stirring, the hexane layer was collected, and this layer was evaporated to dryness. A chloroform solution (concentration: 10 mg/mL) was added thereto, and the mixture was spotted onto a thin-layer silica gel plate and developed using a mixed solution of hexane, diethyl ether, and ethyl acetate (mixing ratio=85:15:2). The radioactivity of a portion corresponding to cholesterol oleate was measured using an imaging analyzer BAS-2500 (manufactured by Fujifilm Corp.). A sample non-supplemented with the test drug was similarly treated and assayed. The EC50 value of LCAT activation was calculated according to the expression given below relative to LCAT activity in the sample non-supplemented with the test drug.
[formula] • wherein X represents the logarithm of the concentration of the test drug; • Y represents the responsiveness (LCAT activity) of the test drug; • Top represents the maximum value (maximum plateau); • Bottom represents the minimum value (minimum plateau); and • EC50 represents the 50% effective concentration.

cynomolgus monkey = test: Drug efficacy test in cynomolgus monkeys (plasma HDL cholesterol); assay type: in vivo; details: Macaca fascicularis, oral, single dose of 10 mg/kg, from AUC before administration and 24 hours after administration, read-out: Rate of increase in HDL level after administration of single dose
Protocol: Each test drug was dissolved in a propylene glycol (Sigma-Aldrich Corp.)-Tween 80 (Sigma-Aldrich Corp.) mixed solution [4/1 (v/v)] or a 0.5% (w/v) methylcellulose aqueous solution, and the solution was orally administered to a cynomolgus monkey for 1 or 7 days. At day 1 or 7 of the administration period, blood was collected before administration and after administration, and plasma was obtained. The content of cholesterol in the plasma was measured using a commercially available assay kit (Cholesterol-E Wako, Wako Pure Chemical Industries, Ltd.). The lipoprotein profile was analyzed by HPLC (column: LipopropakXL, manufactured by Tosoh Corp.). The contents of HDL cholesterol and non-HDL cholesterol were calculated according to the following calculation expression: Content of HDL cholesterol=Content of cholesterol in the plasma×(Peak area of HDL cholesterol/Total sum of peaks) Content of non-HDL cholesterol=Content of cholesterol in the plasma×(Peak area of non-HDL cholesterol/Total sum of peaks)

EC50 (LCAT) [nM]	SMILES	change in vivo at 10 mg/kg (cynomolgus monkey) [%]
51	N#Cc1cnc(N2CCC(c3n[nH]c4c3[C@@H](C(F)(F)F)[C@@H](O)C(=O)N4)CC2)cc1C(F)(F)F (single isomer, unassigned) [Example 20, (+)-6-{4-[cis-5-Hydroxy-6-oxo-4-(trifluoromethyl)-4,5,6,7-tetrahydro-1H-pyrazolo[3,4-b]pyridin-3-yl]piperidin-1-yl}-4-(trifluoromethyl)pyridine-3-carbonitrile]	454
13	O=C1Nc2[nH]nc(C3CCN(c4ccc(C(F)(F)F)cn4)CC3)c2[C@@H](C(F)(F)F)[C@H]1O (single isomer, unassigned) [Example 3, (+)-cis-5-Hydroxy-4-(trifluoromethyl)-3-{1-[5-(trifluoromethyl)pyridin-2-yl]piperidin-4-yl}-1,4,5,7-tetrahydro-6H-pyrazolo[3,4-b]pyridin-6-one]	658
